# Read-outs that look alike come from different tables or passages of the source.
# System: MV-Alaska
# Experiment: Viral CPE-reduction assay (MeV-Alaska in Vero-SLAM cells, crystal violet)
# Type: cell-based, Measles virus (MeV)
# Protocol: Methods for evaluating viral activity are provided for in Yoon et al., J Biomol Screen., 2008, 13(7): 591-608 and Krumm et al., PLoS ONE, 2011, 6(5), e20069, both hereby incorporated by reference in their entirety. In certain instances, Vero-SLAM cells were infected with MeV-Alaska in four replicates per compound concentration in a 96-well plate format at an MOI of 0.4 pfu/cell in the presence of the inhibitor. At 96 hours post-infection, cell monolayers were subjected to crystal violet staining (0.1% crystal violet in 20% ethanol), and the absorbance of dried plates at 560 nm determined. Virus-induced cytopathicity was then calculated according to the formula [% rel. CPE=100-(experimental-minimum)/(maximum-minimum)*100], with minimum referring to infected, vehicle-treated wells and maximum to mock-infected wells.
# [1] = Measles morbillivirus, Table 1, piperidine series, read-out: EC50 (μM) (MV-Alaska) (CPE inhib.)
# [2] = Measles morbillivirus, read-out: EC50 (μM) (MV-Alaska) (CPE inhib.)
smiles,measurement,setting,value
"COCOCC1CCCCN1S(=O)(=O)c1ccc(NC(=O)c2cc(C(F)(F)F)nn2C)cc1 (centres unmarked) [Compound 1a, N-(4-((2-((methoxymethoxy)methyl)piperidin-1-yl)sulfonyl)phenyl)-1-methyl-3-(trifluoromethyl)-pyrazole-5-carboxamide]",fold more potent than the corresponding 3-piperidine,"MOM ether analogs, CPE assay",2 fold
same,EC50,[1],1.5 µM
"CC(=O)NCC1CCCCN1S(=O)(=O)c1ccc(NC(=O)c2cc(C(F)(F)F)nn2C)cc1 (centres unmarked) [Compound 2e, N-(4-((2-(acetamidomethyl)piperidin-1-yl)sulfonyl)phenyl)-1-methyl-3-(trifluoromethyl)-pyrazole-5-carboxamide]",EC50,[1],14 µM
"Cn1nc(C(F)(F)F)cc1C(=O)Nc1ccc(S(=O)(=O)N2CCCCC2/C=C/CO)cc1 (centres unmarked) [Compound 2h, N-(4-((2-(3-hydroxypropyl-1-ene)piperidin-1-yl)sulfonyl)phenyl)-1-methyl-3-(trifluoromethyl)-pyrazole-5-carboxamide]",EC50,[1],6.8 µM
"Cn1nc(C(F)(F)F)cc1C(=O)Nc1ccc(S(=O)(=O)N2CCCCC2CN2CCOCC2)cc1 (centres unmarked) [Compound 2b, 1-methyl-N-(4-((2-(morpholinomethyl)piperidin-1-yl)sulfonyl)phenyl)-3-(trifluoromethyl)-pyrazole-5-carboxamide]",EC50,[1],9.3 µM
"CCOC(=O)CCC1CCCCN1S(=O)(=O)c1ccc(NC(=O)c2cc(C(F)(F)F)nn2C)cc1 (centres unmarked) [Compound 2i, ethyl 3-(1-((4-(1-methyl-3-(trifluoromethyl)-pyrazole-5-carboxamido)phenyl)sulfonyl)piperidin-2-yl)propanoate]",fold more active than the corresponding alcohols (2h and 2j),CPE assay,2 fold
same,EC50,[1],2.7 µM
"CCOC(=O)/C=C/C1CCCCN1S(=O)(=O)c1ccc(NC(=O)c2cc(C(F)(F)F)nn2C)cc1 (centres unmarked) [Compound 2g, ethyl 3-(1-((4-(1-methyl-3-(trifluoromethyl)-pyrazole-5-carboxamido)phenyl)sulfonyl)piperidin-2-yl)acrylate]",fold more active than the corresponding alcohols (2h and 2j),CPE assay,2 fold
same,EC50,[2],3.7 µM
"Cn1nc(C(F)(F)F)cc1C(=O)Nc1ccc(S(=O)(=O)N2CCCCC2CCCO)cc1 (centres unmarked) [Compound 2j, N-(4-((2-(3-hydroxypropyl)piperidin-1-yl)sulfonyl)phenyl)-1-methyl-3-(trifluoromethyl)-pyrazole-5-carboxamide]",EC50,[1],6.7 µM
"COCOCC1CCN(S(=O)(=O)c2ccc(NC(=O)c3cc(C(F)(F)F)nn3C)cc2)CC1 [Compound 1c, N-(4-((4-((methoxymethoxy)methyl)piperidin-1-yl)sulfonyl)phenyl)-1-methyl-3-(trifluoromethyl)-pyrazole-5-carboxamide]","fold reduction of activity, 4-substituted derivative","MOM ether analogs, CPE assay, versus 2-piperidine 1a",~10 fold
same,EC50,[1],16 µM
"Cn1nc(C(F)(F)F)cc1C(=O)Nc1ccc(S(=O)(=O)N2CCCCC2CCO)cc1 (centres unmarked) [Compound 2l, N-(4-((2-(2-hydroxyethyl)piperidin-1-yl)sulfonyl)phenyl)-1-methyl-3-(trifluoromethyl)-pyrazole-5-carboxamide]",fold loss of activity compared to 2m,"CPE assay, R versus S chirality",3 fold
same,EC50,"Table 1, piperidine series, read-out: EC50 (μM) (MV-Alaska) (CPE inhib.)",8.3 µM
"CC(=O)Oc1ccccc1S(=O)(=O)c1ccc(NC(=O)c2cc(C(F)(F)F)nn2C)cc1 [Compound 3d, 2-((4-(1-methyl-3-(trifluoromethyl)-pyrazole-5-carboxamido)phenyl)sulfonyl)phenyl acetate]",EC50,"Measles morbillivirus, Table 2, phenyl and acyclic series, read-out: EC50 (μM) (MV-Alaska) (CPE inhibition)",4.5 µM
"Cn1nc(C(F)(F)F)cc1C(=O)Nc1ccc(S(=O)(=O)N2CCCCC2CN)cc1 (centres unmarked) [Compound 2d, N-(4-((2-(aminomethyl)piperidin-1-yl)sulfonyl)phenyl)-1-methyl-3-(trifluoromethyl)-pyrazole-5-carboxamide]",EC50,[2],55 µM
"Cn1nc(C(F)(F)F)cc1C(=O)Nc1ccc(S(=O)(=O)N2CCCCC2COCCO)cc1 (centres unmarked) [Compound 2q, N-(4-((2-((2-hydroxyethoxy)methyl)piperidin-1-yl)sulfonyl)phenyl)-1-methyl-3-(trifluoromethyl)-pyrazole-5-carboxamide]",EC50,[1],8.3 µM

# From patent US9676727B2, “Myxovirus therapeutics, compounds, and uses related thereto” (priority 2011, dated 2017)
